Assay results published in patent publication US10391070B2, “Compositions and methods for treating neurological diseases or injury” (MUSC FOUNDATION FOR RESEARCH DEVELOPMENT, priority 2012, dated 2019).

Key:
HT-22 neuronal cells = assay: Respirometry (OCR, ECAR; Seahorse XF-96); assay type: cell-based, mouse; design: ECAR (glycolysis), difference from control: unit not given here; conditions: HT-22 cells, mean±SEM
Protocol: Oxygen consumption rates (OCR) and extracellular acidification rates (ECAR) of HT-22 neuronal cells were performed on the XF-96 Extracellular Flux Analyzer (Seahorse Bioscience) using standard methods (Beeson et al., 2010). In brief, cells were cultured in 96 well Seahorse plates in DMEM high glucose media (Invitrogen) supplemented with 10% FBS, 10 mM HEPES, and 1% antibiotic-antimycotic (Invitrogen). The media was replaced with DMEM media supplemented with 25 mM glucose, 10 mM sodium pyruvate, 31 mM NaCl, and 2 mM glutamine at pH 7.4. Each of the four drug ports on the Seahorse sensor cartridge were filled with test compound (media only, 5 μM NQN-1, 10 μM VK3 or 12.5 μM MB), 10 μM oligomycin, 1 μM FCCP, and 5 μM rotenone, which were injected into each well at 20, 80, 110, and 135 min, respectively. The pmol/min OCR rate for each well (9-52 wells/group) was measured. Wells were excluded from the analysis if their OCR values surpassed the Tukey Outlier Rule. In order to standardize the OCR rates across wells, the average OCR value at 17 min (last time point prior to injection of the test compounds) for each experimental group was calculated, and set to 100. All OCR values are given as a percentage of this pre-treatment value. […]

zebrafish larvae = assay: Zebrafish larval toxicity (NOEC, lethal dose); assay type: in vivo; conditions: 7 dpf zebrafish larvae
Protocol: Using a 96-well plate, one zebrafish larva (7 dpf) was placed in each well in 100 μL of tank water (TW). 100 μL of each compound (0.5-15 μM) was then added to each well for 12 animals (one row) to give a final volume of 200 […]. A control row was tested for DMSO toxicity effects. […] Each drug was assessed for the no observed effect concentration (NOEC), the highest non-lethal dose resulting in no apparent toxic effects.
Zebrafish (AB strain) were obtained from the Zebrafish International Resource Center (supported by P40 RR012546 from NIH-NCRR). Zebrafish were maintained and crossed according to standard methods (Westerfield, 2000). Fertilized eggs were collected and placed in E3 embryo medium and positioned in an incubator set at 28.5° C. with a 14/10 h light/dark cycle (Kimmel et al., 1995). To determine the lethal dose of each compound, 96-well plates containing one zebrafish (7 days post-fertilization, dpf) per well in 100 μL of tank water were used. 100 μL of each compound (0.5 to 15 μM) was added to each well for 12 animals (one row) for a final volume of 200 μL. One row of larvae was used as DMSO only controls. […] All zebrafish studies were approved by the Medical University of South Carolina Institutional Animal Care and Use Committee (AR #2850) and performed in accordance with the guidelines.
Using a 96-well plate, one zebrafish larva (7 dpf) was placed in each well in 100 μL of tank water. 100 μL of each compound was then added to each well for 12 animals (one row) for a final volume of 200 μL. One row of zebrafish larvae was used as DMSO only controls. […] Toxicity was also measured in the mouse model by the NIH Anticonvulsant Screening Program at the National Institute of Neurological Disorders and Stroke (Stables and Kupferberg, 1997), according to the established NIH experimental procedures. Compounds were delivered into mice by intraperitoneal (i.p.) injection at a dose of 100 mg/kg in sterile 5% DMSO, 95% Neobee (Josey et al., 2013). Acute toxicity was assessed by monitoring the animals for impaired neuromuscular function by placing treated mice on a rod rotating at 6 rpm. […]

PTZ-induced seizures = assay: PTZ-induced seizure (swim activity) model in zebrafish larvae; assay type: in vivo, zebrafish (Danio rerio)
Protocol: The DanioVision locomotion tracking instrument with Ethovision XT software (Noldus) was used to measure the severity of the seizures by quantifying the locomotor activity of each fish.
In a 48-well plate, one 6-7 dpf larva was added per well. Compounds were given at a sub-lethal dose and treated for 1 h. Three control rows were included—tank water (TW) only, PTZ only and PTZ+VPA (2-4 mM final concentration of VPA). […] After 5 min, the plate was transferred to the Daniovision apparatus and the chamber light was turned on. After 2 min, Ethovision was used to determine the distance traveled (a marker of seizure of activity) by each fish for 15 min (25 frames per second). Velocity, duration of movement, and frequency of movement were also determined from the same recording. After measurement, fish were monitored visually for survival. The distance moved over the recording period with Ethovision XT software (Noldus) was averaged over 8 wells per treatment unless the fish was not detected.
In a 48-well plate, one 7 dpf zebrafish was added per well. Larvae were dosed with each compound at a sub-lethal dose 1 h prior to PTZ treatment. Three control rows were included with each experiment—tank water only control, PTZ only and PTZ+VPA (4 mM final concentration of VPA). […] After 5 min, the plate was transferred to the Daniovision instrument (Noldus Information Technology) and the chamber light was turned on. After 2 min, MediaRecorder (Noldus) was used to record video for 15 min. A small number of videos were acquired 25 frames per second, but the majority of the data was acquired at the frame rate of 60 frames per second. After recording, fish were monitored visually for survival. Ethovision XT software (Noldus) was used to track the fish movement from the video images in order to calculate the total distance traveled over 15 min. […] All experimental comparisons were made between animals from the same clutch.

c-fos = c-fos gene expression in PTZ-treated zebrafish larvae; assay type: in vivo, zebrafish (Danio rerio); conditions: 7 dpf zebrafish, pre-treatment
Protocol: Ten 7 dpf larvae were placed in 500 μL tank water in wells of a 48-well cell-culture plate and appropriate concentrations of drugs were added as in the behavior study (Table 9). After a 1 h pre-incubation period, PTZ was added to a final concentration of 15 mM in appropriate wells and larvae were incubated for a further 45 min. Fish were quickly euthanized by incubating the plate in an ice-water bath for 15 min. Fish were removed from each well and all liquid removed before freezing at −80° C. RNA was extracted using Trizol (Invitrogen) followed by the RNeasy Mini kit (Qiagen). Frozen embryos were homogenized in 800 μL Trizol using in-tube pestles and a motorized homogenizer. Following a 5-min incubation at room temperature, 200 μL chloroform was added and the samples were centrifuged at 12,000 g for 10 min. The aqueous phase was transferred to a new tube and 250 μL 100% ethanol was added and the samples mixed. This mixture was then transferred to the Qiagen minicolumn assembly and the protocol followed as described with the kit. Samples were eluted in 30 μL RNase free water and concentration was determined using the Nanodrop instrument (Thermo Fisher). cDNA was prepared using the RETROscript kit (Ambion) with 500 ng total RNA. cDNA was then diluted 1:1 with sterile dH2O and 2.5 μL of this cDNA was used in the QPCR reaction with SsoAdvanced SYBR Green Supermix (BioRad) and c-fos primers designed to span an intron-exon junction (c-fos F: […], SEQ ID NO:9; c-fos R: […], SEQ ID NO:10) ([…] each) in the BioRad CFX96 RealTime instrument. L13a and EF1a gene expression were used for normalization (Rahn et al., 2013). The following cycle conditions were used: 95° C./3 min, 40 cycles of 95° C./15 s, 62° C./30 s, followed by 95° C. 30 s and a dissociation curve. Samples were run in duplicate. The 2^−ΔΔCt method was used to quantify gene expression, whereby all gene Ct values were first normalized to Ct values of the geometric mean of the Ct of L13a and EF1a (Livak and Schmittgen, 2001). Treated samples were then normalized to the tank water control and converted to fold change.

HDAC = HDAC isozymes inhibited; cited from earlier work
[1] = Antioxidant activity assay (DPPH free radical scavenging); conditions: 20 μM, 100 μM DPPH in methanol
Protocol: Antioxidant activity of various reagents was assayed as previously described by monitoring the disappearance of the optical absorbance of the stable-free radical DPPH on reaction with test compounds (Blois, 1958). The rate of the reaction represents the antioxidant potency of test agents. The known free radical scavenger Trolox and ascorbic acid were used as positive controls. Briefly, 10 μL of test reagents at final concentrations of 20 μM were added to 200 μL of 100 μM DPPH in methanol. Optical absorbance of DPPH at 517 nm was immediately monitored for 10 min.

HT22 cells [2] = assay: t-BuOOH toxicity protection (MTS cell viability); assay type: cell-based, mouse; conditions: HT22, 50 μM t-BuOOH
Protocol: Cell viability was assessed by the ability of the viable cells to metabolize 3-(4,5-dimethylthiazol-2-yl)-5-(3-carboxymethoxyphenyl)-2(4-sulfophenyl)2-H-tetrazolium, inner salt (MTS), as described previously (Cory et al., 1991). The metabolism of tetrazolium salts is often used to measure cellular proliferation, but in the system used here, it has been previously shown to correlate well with cell viability as determined by trypan blue exclusion and colony-forming assays (Davis and Maher, 1994). Briefly, HT-22 cells were seeded onto 96-well plates at 5.0×10^3 cells per well in 75 μL of medium and maintained at 37° C. in 5% CO2 overnight prior to the initiation of experimental treatments. For glutamate toxicity testing, cells were subsequently treated with 25 μL of medium containing glutamate (monosodium glutamate, Sigma, 1 M stock concentration in media, to achieve a final concentration of 10 mM) plus inhibitors (stock in DMSO) and maintained at 37° C. in 5% CO2. For t-BuOOH toxicity testing, cells were subsequently treated with 25 μL of medium containing t-BuOOH (Sigma, 10 mM stock concentration, to achieve a final concentration of 50 μM) plus inhibitors (stock in DMSO) and maintained at 37° C. in 5% CO2 for 3 hours, after which the media was removed, cells washed gently with HBSS, the media replaced with standard culture media, and the cells returned to incubation at 37° C. in 5% CO2. For both glutamate and t-BuOOH treatments, 10 μl of MTS solution was added to each well 24 hrs after initial treatment, and the cells were maintained in growth medium for 2 h at 37° C. Absorbance at 490 nm was subsequently measured by a SpectraMax 190 plate reader (Molecular Devices). The growth medium without cells in the presence of MTS solution was used as solution background and untreated cells were considered the controls. Cell viability was calculated as a percentage compared with untreated controls. EC50 determinations were based on 12-point titrations using GraphPad Prism, and each experiment was repeated at least four times. Morphology of HT22 cells following treatments was determined by phase-contrast microscopy. Digital images of cells grown on cell culture plates were captured at 10× magnification.
In light of the findings that the protection against glutamate induced cell death provided by VK2, 2q, and 2j, are at least partially mediated by the attenuation of the increased production of endogenous ROS, the inventors also examined the effects of these compounds on tert-butylhydroperoxide (t-BuOOH) induced cell death. t-BuOOH is a short chain analog of the lipid hydroperoxides formed from peroxidation reactions during oxidative stress that is cytotoxic to cells (Lemasters and Nieminen, 1997). […] It is well documented that cells undergo rapid and extensive fragmentation in the early stages of cell death (Bossy-Wetzel et al., 2003; Frank et al., 2001; Breckenridge et al., 2008; Jagasia et al., 2005; Lee et al., 2004). Recent studies have shown that mitochondrial fragmentation is regulated by the translocation of dynamin-related protein 1 (Drp1) from the cytosol to the mitochondria, where it assembles to form spirals at division sites (Smirnova et al., 2001). Although the exact molecular mechanism is still not well studied, the activity of Drp1 is regulated by the phosphorylation and dephosphorylation of specific serine residues by protein kinases and phosphatases such as calcineurin and the PGAM5 (Wang et al., 2012; Chang et al., 2007). […]

HT22 cells [3] = assay: Glutathione determination in glutamate-treated cells; assay type: cell-based, mouse; conditions: HT22, 10 mM glutamate 8 hrs, 25 μM
Protocol: The content of total glutathione (reduced and oxidized) in the supernatant of cell homogenate was measured using the glutathione assay kit (Cayman Chemical) in microtiter plate assay, which utilizes an enzymatic recycling method, using glutathione reductase, for the quantification of glutathione. The sulfhydryl group of glutathione reacted with 5,5′-dithiobis-2-nitrobenzoic acid (DTNB) and produced a yellow-colored 5-thio-2-nitrobenzoic acid (TNB), which was measured at 405 nm.

Structure (SMILES) | basal cellular respiration, difference in OCR from control (HT-22 neuronal cells; 1 h treatment, OCR as percentage of pre-treatment value) | basal mitochondrial respiration, difference from control (HT-22 neuronal cells; basal minus non-mitochondrial (rotenone)) | ATP-linked respiration, difference from control (HT-22 neuronal cells; basal minus oligomycin) | ECAR (glycolysis), difference from control (HT-22 neuronal cells) | Lethal dose (zebrafish larvae; up to 5 h treatment) | Highest concentration tested for anti-seizure activity (zebrafish larvae; highest sub-lethal dose) | concentration required for effective reduction of seizures (PTZ-induced seizures; PTZ-treated zebrafish larvae) | Seizure suppression (PTZ-induced seizures; PTZ-treated zebrafish larvae, pretreated 1 hr at NOEC) | PTZ-induced swim activity (distance traveled) (PTZ-induced seizures; zebrafish larvae, 1 h pretreatment at sub-lethal concentration (VPA 4 mM, NQN-1 3 μM), 15 mM PTZ) | PTZ-induced increase in c-fos expression (c-fos) | HDAC Class of Inhibition (HDAC) | free radical scavenging capacity (DPPH absorbance) [1] | protection from t-BuOOH induced cell death (HT22 cells [2]) | depletion of total cellular GSH (HT22 cells [3])
O=C(NC1=CC(=O)c2ccccc2C1=O)c1ccccc1 [2-benzoylamino-1,4-naphthoquinone] | 24.35±1.03 | 15.26±2.29 | 16.83±1.83 | 1.75±1.12 | 0.005 mM | 0.003 mM | 3 µM | Yes | significantly suppressed PTZ-induced swim activity | able to blunt this increase in expression | 6 |  |  | 
Cc1c(C)c2c(c(C)c1O)CCC(C)(C(=O)O)O2 (centres unmarked) [Trolox] |  |  |  |  |  |  |  |  |  |  |  | rapidly scavenged DPPH | less effective | did not prevent GSH depletion
